Measurements from patent publication US6426369B1, “Oxethazaine as antimicrobial agent” (Eisai Co., Ltd., priority 1997, dated 2002).
Values after ≈ are worked out from the molar mass of the structure shown.

How the values were obtained:
[1] = tested on: H. pylori; test: Antimicrobial activity test 1: anti-H. pylori activity of a single compound (agar plate method); format: cell-based, Helicobacter pylori; conditions: Helicobacter pylori, read-out: MIC (growth inhibition)
[2] = tested on: H. pylori; conditions: PPI alone, 30 mg/day, 8 weeks; cited from earlier work
[3] = tested on: Gram-positive bacteria; test: Antimicrobial activity (MIC) of oxethazaine and structure analogues against Gram-positive bacteria; format: cell-based
[4] = tested on: H. pylori; test: Antimicrobial activity test 3: oxethazaine in combination with compound (II), checker board method; format: cell-based; conditions: Helicobacter pylori
Source text: In each Table, the concentration of oxethazaine is shown vertically, and the concentration of compound (II) is shown horizontally. In each Table, “−” indicates the inhibited growth of H. pylori (presence of antimicrobial activity), and “+” indicates the growth of H. pylori (absence of antimicrobial activity). […] It is assumed to be present when the MIC of either oxethazaine or PPI is reduced by ½ (when anti-H. pylori activity is not recognized when the concentrations of both oxethazaine and PPI are reduced to ¼, but anti-H. pylori activity is recognized when the concentration of one compound is reduced to ¼ and simultaneously the concentration of the other compound is reduced to ½.).

[5] = tested on: H. pylori; test: Antimicrobial activity test 2: time for sterilizing H. pylori (viable cell count in Brucella broth); format: cell-based, Helicobacter pylori; conditions: NCTC 11637
Procedure: A solution of the test compound was added to Brucella broth containing 5% fetal bovine serum, cultured under slightly aerobic conditions at 37° C., and the vial microbe cell number in Brucella agar containing 7% horse blood was counted at predetermined intervals. The above compound (1) was dissolved in a 1% aqueous solution of […] (DMSO), and the above compound (2) was dissolved in water to prepare a solution of each test compound. “cfu” in Tables and Figures means “colony forming unit”.

[6] = tested on: H. pylori; test: Antimicrobial activity test 6: oxethazaine in combination with an antibiotic (AMPC, CAM, RXM), checker board method; format: cell-based, Helicobacter pylori; conditions: combined use with oxethazaine; out of 15 strains (AMPC), 21 strains (CAM), 22 strains (RXM)
Source text: The effect of combined use with amoxicillin (AMPC), clarithromycin (CAM) or roxithromycin (RXM) was examined in the same manner as in antimicrobial activity test 1, using the checker board method.

[7] = strain 90-397 (first line, r19)
[8] = strain 90-397 (second line, r25)

Compound: Cc1c(OCC(F)(F)F)ccnc1C[S+]([O-])c1nc2ccccc2[nH]1 (stereo not drawn) [Compound (IV), lansoprazole]
- MIC ([1]; NCTC11637, strain NCTC11637): 12.5 µg/mL (≈ 33.8 µM)
- MIC ([1]; NCTC11639, strain NCTC11639): 3.13 µg/mL (≈ 8.47 µM)
- MIC ([1]; NCTC11916, strain NCTC11916): 6.25 µg/mL (≈ 16.9 µM)
- MIC ([1]; strain 89-355): 3.13 µg/mL (≈ 8.47 µM)
- MIC ([1]; strain 89-357): 6.25 µg/mL (≈ 16.9 µM)
- MIC ([1]; strain 89-360 (1)): 6.25 µg/mL (≈ 16.9 µM)
- MIC ([1]; strain 89-360): 6.25 µg/mL (≈ 16.9 µM)
- MIC ([1]; strain 90-384): 3.13 µg/mL (≈ 8.47 µM)
- MIC ([1]; strain 90-388 (1)): 6.25 µg/mL (≈ 16.9 µM)
- MIC ([1]; strain 90-388): 3.13 µg/mL (≈ 8.47 µM)
- MIC ([1]; strain 90-390 (1)): 6.25 µg/mL (≈ 16.9 µM)
- MIC ([1]; strain 90-390): 3.13 µg/mL (≈ 8.47 µM)
- MIC ([1]; strain 90-392): 6.25 µg/mL (≈ 16.9 µM)
- MIC [1, 7]: 3.13 µg/mL (≈ 8.47 µM)
- MIC [1, 8]: 6.25 µg/mL (≈ 16.9 µM)
- MIC ([1]; strain 90-407 (1)): 6.25 µg/mL (≈ 16.9 µM)
- MIC ([1]; strain 90-407): 3.13 µg/mL (≈ 8.47 µM)
- MIC ([1]; strain 90-411): 3.13 µg/mL (≈ 8.47 µM)
- MIC ([1]; strain 90-414 (1)): 6.25 µg/mL (≈ 16.9 µM)
- MIC ([1]; strain 90-414): 6.25 µg/mL (≈ 16.9 µM)
- MIC ([1]; strain 90-428): 6.25 µg/mL (≈ 16.9 µM)
- MIC ([1]; strain EH12): 3.13 µg/mL (≈ 8.47 µM)
- MIC ([1]; strain EH13): 3.13 µg/mL (≈ 8.47 µM)
- MIC ([1]; strain EH16): 3.13 µg/mL (≈ 8.47 µM)
- MIC ([1]; strain EH26): 6.25 µg/mL (≈ 16.9 µM)
- degree of efficacy for H. pylori therapy [2]: 5%

Compound: CCOC(=O)c1ccc(NC(=O)CN2CCCCC2)cc1 [(B)]
- antimicrobial activity (MIC) ([3]; E. faecalis RIMD 3116001): >100 µg/mL
- antimicrobial activity (MIC) ([3]; S. aureus FDA 209-P): >100 µg/mL
- antimicrobial activity (MIC) ([3]; S. epidermidis ATCC 12228): >100 µg/mL

Compound: COc1ccc2[nH]c([S+]([O-])Cc3ncc(C)c(OC)c3C)nc2c1 (stereo not drawn) [Compound (III), omeprazole]
- MIC ([1]; NCTC11637, strain NCTC11637): 50 µg/mL (≈ 145 µM)
- MIC ([1]; NCTC11639, strain NCTC11639): 25 µg/mL (≈ 72.4 µM)
- MIC ([1]; NCTC11916, strain NCTC11916): 50 µg/mL (≈ 145 µM)
- MIC ([1]; strain 89-355): 25 µg/mL (≈ 72.4 µM)
- MIC ([1]; strain 89-357): 50 µg/mL (≈ 145 µM)
- MIC ([1]; strain 89-360): 50 µg/mL (≈ 145 µM)
- MIC ([1]; strain 90-384): 50 µg/mL (≈ 145 µM)
- MIC ([1]; strain 90-388 (1)): 25 µg/mL (≈ 72.4 µM)
- MIC ([1]; strain 90-388): 50 µg/mL (≈ 145 µM)
- MIC ([1]; strain 90-390 (1)): 25 µg/mL (≈ 72.4 µM)
- MIC ([1]; strain 90-390): 50 µg/mL (≈ 145 µM)
- MIC ([1]; strain 90-392): 25 µg/mL (≈ 72.4 µM)
- MIC [1, 7]: 25 µg/mL (≈ 72.4 µM)
- MIC [1, 8]: 25 µg/mL (≈ 72.4 µM)
- MIC ([1]; strain 90-407): 25 µg/mL (≈ 72.4 µM)
- MIC ([1]; strain 90-411): 25 µg/mL (≈ 72.4 µM)
- MIC ([1]; strain 90-414 (1)): 25 µg/mL (≈ 72.4 µM)
- MIC ([1]; strain 90-414): 50 µg/mL (≈ 145 µM)
- MIC ([1]; strain 90-428): 50 µg/mL (≈ 145 µM)
- MIC ([1]; strain EH12): 25 µg/mL (≈ 72.4 µM)
- MIC ([1]; strain EH13): 25 µg/mL (≈ 72.4 µM)
- MIC ([1]; strain EH16): 25 µg/mL (≈ 72.4 µM)
- MIC ([1]; strain EH26): 25 µg/mL (≈ 72.4 µM)

Compound: COCCCOc1ccnc(CSc2nc3ccccc3[nH]2)c1C [Compound (II), 2-[4-(3-methoxypropoxy)-3-methylpyridine-2-yl]methylthio-1H-benzimidazole]
- MIC ([1]; NCTC11637, strain NCTC11637): 1.56 µg/mL (≈ 4.54 µM)
- MIC ([1]; NCTC11639, strain NCTC11639): 0.8 µg/mL (≈ 2.33 µM)
- MIC ([1]; NCTC11916, strain NCTC11916): 1.56 µg/mL (≈ 4.54 µM)
- MIC ([1]; strain 89-355): 1.56 µg/mL (≈ 4.54 µM)
- MIC ([1]; strain 89-357): 0.8 µg/mL (≈ 2.33 µM)
- MIC ([1]; strain 89-360 (1)): 1.56 µg/mL (≈ 4.54 µM)
- MIC ([1]; strain 89-360): 1.56 µg/mL (≈ 4.54 µM)
- MIC ([1]; strain 90-384): 1.56 µg/mL (≈ 4.54 µM)
- MIC ([1]; strain 90-388 (1)): 0.8 µg/mL (≈ 2.33 µM)
- MIC ([1]; strain 90-388): 1.56 µg/mL (≈ 4.54 µM)
- MIC ([1]; strain 90-390 (1)): 0.8 µg/mL (≈ 2.33 µM)
- MIC ([1]; strain 90-390): 0.8 µg/mL (≈ 2.33 µM)
- MIC ([1]; strain 90-392): 0.8 µg/mL (≈ 2.33 µM)
- MIC [1, 7]: 1.56 µg/mL (≈ 4.54 µM)
- MIC [1, 8]: 0.8 µg/mL (≈ 2.33 µM)
- MIC ([1]; strain 90-407 (1)): 0.8 µg/mL (≈ 2.33 µM)
- MIC ([1]; strain 90-407): 1.56 µg/mL (≈ 4.54 µM)
- MIC ([1]; strain 90-411): 0.8 µg/mL (≈ 2.33 µM)
- MIC ([1]; strain 90-414 (1)): 0.8 µg/mL (≈ 2.33 µM)
- MIC ([1]; strain 90-414): 0.8 µg/mL (≈ 2.33 µM)
- MIC ([1]; strain 90-428): 1.56 µg/mL (≈ 4.54 µM)
- MIC ([1]; strain EH12): 0.8 µg/mL (≈ 2.33 µM)
- MIC ([1]; strain EH13): 0.8 µg/mL (≈ 2.33 µM)
- MIC ([1]; strain EH16): 0.8 µg/mL (≈ 2.33 µM)
- MIC ([1]; strain EH26): 1.56 µg/mL (≈ 4.54 µM)
- MIC ([4]; NCTC11637, NCTC 11637): 1.56 µg/mL
- MIC ([4]; NCTC11639, NCTC 11639): 0.8 µg/mL

Compound: CC1(C)S[C@@H]2[C@H](NC(=O)[C@H](N)c3ccccc3)C(=O)N2[C@H]1C(=O)O [ampicillin]
- Viable microbe cell number ([5]; 1 MIC, 0 h): 6.25 log10cfu/ml
- Viable microbe cell number ([5]; 1 MIC, 3 h): 5.51 log10cfu/ml
- Viable microbe cell number ([5]; 1 MIC, 6 h): 4.49 log10cfu/ml
- Viable microbe cell number ([5]; 1 MIC, 24 h): 3.48 log10cfu/ml
- Viable microbe cell number ([5]; 2 MIC, 0 h): 6.25 log10cfu/ml
- Viable microbe cell number ([5]; 2 MIC, 3 h): 5.30 log10cfu/ml
- Viable microbe cell number ([5]; 2 MIC, 6 h): 4.41 log10cfu/ml
- Viable microbe cell number ([5]; 2 MIC, 24 h): 3.00 log10cfu/ml
- Viable microbe cell number ([5]; 4 MIC, 0 h): 6.25 log10cfu/ml
- Viable microbe cell number ([5]; 4 MIC, 3 h): 4.95 log10cfu/ml
- Viable microbe cell number ([5]; 4 MIC, 6 h): 4.20 log10cfu/ml
- Viable microbe cell number ([5]; 4 MIC, 24 h): 2.48 log10cfu/ml

Compound: CCN(CC)CCOC(=O)c1ccc(N)cc1.Cl [(C)]
- antimicrobial activity (MIC) ([3]; E. faecalis RIMD 3116001): >100 µg/mL
- antimicrobial activity (MIC) ([3]; S. aureus FDA 209-P): >100 µg/mL
- antimicrobial activity (MIC) ([3]; S. epidermidis ATCC 12228): >100 µg/mL

Compound: CC1(C)S[C@@H]2[C@H](NC(=O)[C@H](N)c3ccc(O)cc3)C(=O)N2[C@H]1C(=O)O [Amoxicillin, amoxicillin]
- additive effect, number of strains [6]: 10 strains/
- synergism, number of strains [6]: 0 strains/

Compound: CCOC(=O)c1ccc(N)cc1 [(A)]
- antimicrobial activity (MIC) ([3]; E. faecalis RIMD 3116001): >100 µg/mL
- antimicrobial activity (MIC) ([3]; S. aureus FDA 209-P): >100 µg/mL
- antimicrobial activity (MIC) ([3]; S. epidermidis ATCC 12228): >100 µg/mL
